For one experiment, the system named is lung DCs. Description: Activation of murine lung DCs: phagocytosis of Aspergillus conidia, costimulatory antigen expression, cytokine production. The experiment is classed as cell-based. The protocol:
For mature PDCs, immature DCs were cultured with the trimeric human CD40 ligand as above and 10 ng/ml IL-3. […] The expression of HLA Class II, CD80 and CD86 was high in both immature and mature DCs. Murine lung CD 11c^+ DCs (between 5 to 7% positive for CD8alpha and between 30 to 35% positive for Gr-1) were isolated by magnetic cell sorting. For phagocytosis, DCs were pre-exposed to 100 ng/ml TA1 for 60 minutes and subsequently incubated at 37° C. with Aspergillus conidia for an additional 60 minutes. The percentage of internalization was calculated and photographs were taken. In assessing functional maturation and cytokine determination, purified DCs were resuspended in Iscove's medium (with no serum but with polymixin B, to avoid non-specific activation by serum components and endotoxin) and pulsed with 100 ng/ml TA1 for 24 hours either alone or together with TLR ligands or unopsonized Aspergillus conidia. Cell surface phenotype was assessed by reacting samples with FITC- or PE-conjugated rat anti-mouse antibodies. Unrelated hisotype matched antibodies were used as control. The levels of TNF-alpha, IL-10, IL-12 p70, IFN-alpha and IL-8 in culture supernatants were determined by Kit ELISAs. The detection limits (pg/ml) of the assays were <3 (human) and <32 (murine) for TNF-alpha, <12 (murine) and <5 (human) for IL-10, <16 (murine) and <3 (human) for IL-12 p70 and <25 (human) IL-8. For human IFN-alpha <3 ng/ml. For enumeration of cytokine-producing cells, an ELISPOT assay was used on purified CD4^+ T cells and DCs from lungs.

For a further experiment, the system named is MyD88-dependent pathway. In words: Cytokine production by DCs of MyD88-deficient mice. The experiment is classed as cell-based. On the procedure: Female, 8- to 10-weeks old, BALB/c and C57BL6 mice were from Charles River. NOD/SCID were from The Jackson. Breeding pairs of homozygous TLR2-, TLR9- and MyD88-deficient mice, raised on C57BL6 background, and of homozygous IFN-gamma- and IL-4-deficient mice, raised on BALB/c background, were bred under specific-pathogen free conditions. For phagocytosis, DCs were pre-exposed to 100 ng/ml TA1 for 60 minutes and subsequently incubated at 37° C. with Aspergillus conidia for an additional 60 minutes. The percentage of internalization was calculated and photographs were taken. In assessing functional maturation and cytokine determination, purified DCs were resuspended in Iscove's medium (with no serum but with polymixin B, to avoid non-specific activation by serum components and endotoxin) and pulsed with 100 ng/ml TA1 for 24 hours either alone or together with TLR ligands or unopsonized Aspergillus conidia. The levels of TNF-alpha, IL-10, IL-12 p70, IFN-alpha and IL-8 in culture supernatants were determined by Kit ELISAs. The detection limits (pg/ml) of the assays were <3 (human) and <32 (murine) for TNF-alpha, <12 (murine) and <5 (human) for IL-10, <16 (murine) and <3 (human) for IL-12 p70 and <25 (human) IL-8. For human IFN-alpha <3 ng/ml. For enumeration of cytokine-producing cells, an ELISPOT assay was used on purified CD4^+ T cells and DCs from lungs.

The next experiment relates to A. fumigatus. In words: BMT mice with invasive aspergillosis: survival, fungal growth in lungs (chitin assay), lung histology. Type of experiment: in vivo. From the text: For infection with A. fumigatus, mice were intranasally injected for 3 consecutive days with a suspension of 2×10^7 conidia/20 microliter saline. For the quantification of fungal growth in the lungs, the chitin assay was used. The chitin content was expressed as micrograms of glucosamine per organ. The glucosamine content of lungs from uninfected mice was used as a negative control ranging between 0.80 and 2.25 microgram glucosamine/organ. For histological analysis, lungs were excised and immediately fixed in formalin. Sections (3 to 4 micron) of paraffin-embedded tissues were stained with the periodic acid-Schiff procedure. Thymosin alpha 1 (TA1) and the scrambled polypeptide are as purified sterile lyophilized acetylated polypeptides with endotoxin levels less than 0.03 pg/ml, by a standard limulus lysate assay. The sequences were as follows: Ac-[…]O (Thymosin alpha 1, SEQ ID NO.: 1) and Ac-[…]OH ([…]). Their lyophilized powders were reconstituted in sterile water.
The treatments were as follows; in BMT-mice, TA1, at different doses administered intraperitoneally, sthymosin alpha 1, 400 microgram/kg administered intraperitoneally or human recombinant G-CSF 250 microgram/kg administered intravenously, were given daily beginning the day of the BM infusion, in concomitance with the infection and continuing for an additional 3 days. Amphotericin B was given daily for 3 days in concomitance with the infection, at a dose of 4000 microgram/kg, administered intraperitoneally. This dose would cure IA in cyclophosphamide-treated mice. Cyclophosphamide, 150 mg/kg administered intraperitoneally, was given a day before the infection. In cyclophosphamide-treated mice, 400 microgram/kg TA1 was given intraperitoneally for 5 consecutive days beginning the day of the infection.
C57BL6 mice were exposed to a lethal dose of 9 Gy and infused with T cell-depleted donor cells from BALB/c mice.

Where [1] appears, read: combined exposure to Aspergillus conidia and TA1.
Where [2] appears, read: mice treated with both agents (TA1 and amphotericin B).

“Also recorded” adds a separate entry of the source. Where only a bound is given, the exact number is not on record here.

Consider “Ac-Ser-Asp-Ala-Ala-Val-Asp-Thr-Ser-Ser-Glu-Ile-Thr-Thr-Lys-Asp-Leu-Lys-Glu-Lys-Lys-Glu-Val-Glu-Glu-Ala-Glu-Asn-O (Ac-SDAAVDTSSEITTKDLKEKKEVEEAEN-OH) [TA1, naturally occurring thymic peptide]”, for which, in the experiment with lung DCs (100 ng/ml), the “activation of lung DCs for phagocytosis of unopsonized conidia, costimulatory antigen expression and cytokine production” value is reported as “activates”. Moreover, in the experiment with lung DCs (setting [1]), the “expression of MHC Class II antigens, CD86 and CD40 molecules” value was “remarkably increased”; the “frequency of IL-12 p70-producing DCs” value is listed as “remarkably increased”. For the same substance, the “frequency of IL-12 p70-producing DCs” value in the experiment with lung DCs (thymosin alone) is “also increased”. The IL-10 production result in the experiment with MyD88-dependent pathway is on record as “dramatically ablated”. Moreover, the “IL-12 p70 production” value in the experiment with MyD88-dependent pathway (TA1 and conidia) is on record as “dramatically ablated”. In the experiment on A. fumigatus (200 and 400 microgram/kg TA1, amphotericin B 4000 microgram/kg), the “protection compared with amphotericin B” value is “superior to that of amphotericin B”. Besides, the “survival (full protection)” value in the experiment with A. fumigatus (200 microgram/kg TA1) was > 60 days. Also, the “survival (full protection)” value with A. fumigatus (400 microgram/kg TA1) is > 60 days. Besides, in the experiment with A. fumigatus (BMT mice with IA), the “fungal growth in the lungs” value was “dose-responsive reduction; also recorded: reduced fungal growth” and the survival result is on record as “increased survival”. For the same substance, in the experiment with A. fumigatus (BMT mice with IA, different doses), the “effect on protection, dose relation” value is “dose-dependent”. For the same substance, the “cure of BMT mice with IA” value in the experiment on A. fumigatus (intraperitoneally, daily) is recorded as “complete cure; also recorded: able to cure”. For the same substance, the lung pathology result in the experiment with A. fumigatus (lung sections, periodic acid-Schiff) is recorded as “decreases lung pathology”. Besides, in the experiment on A. fumigatus (mice treated with both agents), the “effect on therapeutic efficacy of amphotericin B” value is “increases the therapeutic efficacy of amphotericin B”. In the experiment with A. fumigatus (setting [2]), the fungal burden result is on record as “decreased fungal burden” and the survival result is “increased survival”.

The values are drawn from US8389680B2, “Treatment of Aspergillus infections with alpha thymosin peptides” (SciClone Pharmaceuticals, Inc., priority 2003, dated 2013).
